Source: patent US9067974B2, “Polymyxin derivatives and uses thereof” (priority 2006, dated 2015)

Assays:
A. baumannii ATCC 19606 = assay: Sensitization to rifampin: well diffusion growth inhibition on LB plates containing rifampin; format: cell-based, Acinetobacter baumannii; conditions: 4 μg of compound
[1] = test system: Pseudomonas aeruginosa ATCC 27853; assay: Well diffusion growth inhibition on LB agar plates (direct antibacterial activity); format: cell-based; conditions: Ps. aeruginosa ATCC 27853
Protocol: (§1) From an overnight-grown culture of IH3080 on LB agar, a suspension of approx. 10^8 cells/ml was prepared in 0.9% NaCl. Aliquots of this suspension were then pipetted on the agar plates and the plates were gently shaken to spread the suspension evenly on the entire surface of the plate. Thereafter, the unabsorbed part of the suspension was removed by using a Pasteur pipette. After the surface had dried, small wells (diameter, 2 mm) were drilled on the plates (five wells per plate) by using a sterile sharp-edged narrow metal tube, single-use pipette tip, and vacuum suction. Samples (4 μl and 10 μl) of the peptide solution in 0.9% NaCl (at concentrations of 1 μg/ml and 0.1 μg/ml) were then pipetted to the wells and the sample fluids were allowed to absorb. Controls included 0.9% NaCl solution without the compound to be tested. The plates were then incubated for 18 h at 37° C. whereafter the diameters of growth inhibition zones around each well were measured; the diameter of the well itself was not reduced. Finally, the diameters were converted to surface areas of growth inhibition (in square mm).
(§2) Direct antibacterial activity of twelve NAB compounds against Acinetobacter baumannii ATCC 19606 and Pseudomonas aeruginosa ATCC 27853 was tested by using the susceptibility determination method described in Example 2. Five compounds (NAB7062, NAB734, NAB737, NAB739, and NAB740) had notable activity against A. baumannii. […] The antibacterial activity of NAB739 and NAB740 were as strong as or even stronger than that of polymyxin B.

[2] = test system: Acinetobacter baumannii ATCC 19606; assay: as above; format: cell-based; conditions: A. baumannii ATCC 19606
Protocol: as §1, §2

E. coli IH3080 (K1:O18) = assay: as above; format: cell-based, Escherichia coli
Protocol: Peptides synthesized in Example 1, all carrying at least two (2) but not more than three (3) positive charges, were studied for their ability to inhibit the growth of E. coli. This was tested employing LB agar (LB Agar Lennox, Difco, BD, Sparks, Md., U.S.A) plates. The indicator organism E. coli IH3080 (K1:O18) was an encapsulated strain originally isolated from a neonate suffering from meningitis (Vaara et al. 1984) and obtained from National Public Health Institute, Helsinki, Finland.
as §1, with “Samples (4 μl and 10 μl) of the peptide solution in 0.9% NaCl (at concentrations of 1 μg/ml and 0.1 μg/ml) were then pipetted to the wells and the sample fluids were allowed to absorb.” left out

E. coli IH3080 = assay: Sensitization to rifampin: well diffusion growth inhibition on LB plates containing rifampin; format: cell-based, Escherichia coli; conditions: 4 μg of compound
Protocol: as §1, with “Samples (4 μl and 10 μl) of the peptide solution in 0.9% NaCl (at concentrations of 1 μg/ml and 0.1 μg/ml) were then pipetted to the wells and the sample fluids were allowed to absorb.” left out

[3] = test system: Ps. aeruginosa ATCC 27853; assay: as above; format: cell-based, Pseudomonas aeruginosa; conditions: 4 μg of compound
C. freundii ATCC8090 = assay: Well diffusion growth inhibition on LB agar plates (direct antibacterial activity); format: cell-based, Citrobacter freundii
Protocol: as §1
(§3) The susceptibility of eleven Gram-negative bacterial strains (nine different species) to NAB734 and polymyxin B was compared by using the susceptibility determination method described in Example 2. The strains included those belonging to the species of Serratia marcescens and Proteus mirabilis, both species generally known to be resistant to polymyxin. Furthermore, the susceptibility determination was also performed by using the Gram-positive bacterium, Staphylococcus aureus, also generally known to be polymyxin-resistant. Ten of the strains originated from ATCC (American Type Culture Collection, Manassas, Va., U.S.A.), and one from CCUG (Culture Collection of University of Gothenburg, Sweden). The source of E. coli IH3080 has been described in Example 2. Polymyxin B sulfate was from Sigma-Aldrich (St. Louis, Mo., USA).

K. pneumoniae CCUG45421 = assay: as above; format: cell-based, Klebsiella pneumoniae
Protocol: as §1, with “Samples (4 μl and 10 μl) of the peptide solution in 0.9% NaCl (at concentrations of 1 μg/ml and 0.1 μg/ml) were then pipetted to the wells and the sample fluids were allowed to absorb.” left out
as §3

K. oxytoca ATCC13182 = assay: as above; format: cell-based, Klebsiella oxytoca
Protocol: as §1, §3

E. coli ATCC25922 = assay: as above; format: cell-based, Escherichia coli
Protocol: as §1, with “Samples (4 μl and 10 μl) of the peptide solution in 0.9% NaCl (at concentrations of 1 μg/ml and 0.1 μg/ml) were then pipetted to the wells and the sample fluids were allowed to absorb.” left out
as §3

P. mirabilis ATCC29906 = assay: as above; format: cell-based, Proteus mirabilis
Protocol: as §1, §3

E. cloacae ATCC23355 = assay: as above; format: cell-based, Enterobacter cloacae
Protocol: as §1, §3

K. pneumoniae ATCC13883 = assay: as above; format: cell-based, Klebsiella pneumoniae
Protocol: as §1, §3

S. aureus ATCC 25923 = assay: as above; format: cell-based, Staphylococcus aureus
Protocol: as §1, with “Samples (4 μl and 10 μl) of the peptide solution in 0.9% NaCl (at concentrations of 1 μg/ml and 0.1 μg/ml) were then pipetted to the wells and the sample fluids were allowed to absorb.” left out
as §3

S. marcescens ATCC8100 = assay: as above; format: cell-based, Serratia marcescens
Protocol: as §1, §3

Substance | Antibacterial activity in the presence of rifampin (growth inhibition area around a well) (A. baumannii ATCC 19606; rifampin 0 μg/ml) [square millimeters] | Antibacterial activity in the presence of rifampin (growth inhibition area around a well) (A. baumannii ATCC 19606; rifampin 0.1 μg/ml) [square millimeters] | Antibacterial activity in the presence of rifampin (growth inhibition area around a well) (A. baumannii ATCC 19606; rifampin 0.3 μg/ml) [square millimeters] | Antibacterial activity (growth inhibition area around a well) ([1]; 4 μg per well) [square millimeters] | Antibacterial activity (growth inhibition area around a well) ([1]; 10 μg per well) [square millimeters] | Antibacterial activity (growth inhibition area around a well) ([2]; 4 μg per well) [square millimeters] | Antibacterial activity (growth inhibition area around a well) ([2]; 10 μg per well) [square millimeters] | Antibacterial activity (growth inhibition area around a well) (E. coli IH3080 (K1:O18); 4 μg of compound per well) [square millimeters] | Antibacterial activity (growth inhibition area around a well) (E. coli IH3080 (K1:O18); 10 μg of compound per well) [square millimeters] | Antibacterial activity in the presence of rifampin (growth inhibition area around a well) (E. coli IH3080; rifampin 0 μg/ml) [square millimeters] | Antibacterial activity in the presence of rifampin (growth inhibition area around a well) (E. coli IH3080; rifampin 0.1 μg/ml) [square millimeters] | Antibacterial activity in the presence of rifampin (growth inhibition area around a well) (E. coli IH3080; rifampin 1.0 μg/ml) [square millimeters] | Antibacterial activity in the presence of rifampin (growth inhibition area around a well) ([3]; rifampin 0 μg/ml) [square millimeters] | Antibacterial activity in the presence of rifampin (growth inhibition area around a well) ([3]; rifampin 0.1 μg/ml) [square millimeters] | Antibacterial activity in the presence of rifampin (growth inhibition area around a well) ([3]; rifampin 0.3 μg/ml) [square millimeters] | also measured
DA-cy[Dab-Dab-DPhe-Leu-Dab-Dab-Thr-] [NAB 736] | 0 | 95 | 154 | 38 | 79 | 0 | 0 | 0 | 0 | 0 | 113 | 133 | 38 | 38 | 38 | –
DA-Thr-DSer-cy[Dab-Dab-DPhe-Leu-Dab-Dab-Thr-] [NAB 740] | 133 | 154 | 154 | 64 | 133 | 133 | 201 | 95 | 133 | 95 | 95 | 95 | 64 | 64 | 64 | –
Polymyxin B sulfate [reference compound] | – | – | – | 95 | 133 | 113 | 154 | 95 | 133 | – | – | – | – | – | – | Antibacterial activity (growth inhibition area around a well) (C. freundii ATCC8090; 4 μg per well): 95 square millimeters; Antibacterial activity (growth inhibition area around a well) (C. freundii ATCC8090; 10 μg per well): 154 square millimeters; Antibacterial activity (growth inhibition area around a well) (K. pneumoniae CCUG45421; 4 μg per well): 95 square millimeters; Antibacterial activity (growth inhibition area around a well) (K. pneumoniae CCUG45421; 10 μg per well): 133 square millimeters; Antibacterial activity (growth inhibition area around a well) (K. oxytoca ATCC13182; 4 μg per well): 79 square millimeters; Antibacterial activity (growth inhibition area around a well) (K. oxytoca ATCC13182; 10 μg per well): 104 square millimeters; Antibacterial activity (growth inhibition area around a well) (E. coli ATCC25922; 4 μg per well): 95 square millimeters; Antibacterial activity (growth inhibition area around a well) (E. coli ATCC25922; 10 μg per well): 133 square millimeters; Antibacterial activity (growth inhibition area around a well) (P. mirabilis ATCC29906; 4 μg per well): 0 square millimeters; Antibacterial activity (growth inhibition area around a well) (P. mirabilis ATCC29906; 10 μg per well): 0 square millimeters; Antibacterial activity (growth inhibition area around a well) (E. cloacae ATCC23355; 4 μg per well): 95 square millimeters; Antibacterial activity (growth inhibition area around a well) (E. cloacae ATCC23355; 10 μg per well): 143 square millimeters; Antibacterial activity (growth inhibition area around a well) (K. pneumoniae ATCC13883; 4 μg per well): 79 square millimeters; Antibacterial activity (growth inhibition area around a well) (K. pneumoniae ATCC13883; 10 μg per well): 113 square millimeters; Antibacterial activity (growth inhibition area around a well) (S. aureus ATCC 25923; 4 μg per well): 0 square millimeters; Antibacterial activity (growth inhibition area around a well) (S. aureus ATCC 25923; 10 μg per well): 0 square millimeters; Antibacterial activity (growth inhibition area around a well) (S. marcescens ATCC8100; 4 μg per well): 0 square millimeters; Antibacterial activity (growth inhibition area around a well) (S. marcescens ATCC8100; 10 μg per well): 0 square millimeters
Polymyxin B nonapeptide [reference compound] | 0 | 133 | 154 | 113 | 177 | 0 | 0 | 0 | 0 | 0 | 20 | 113 | 113 | 113 | 154 | –
OA-Thr-Dab-cy[Dab-Dab-DPhe-Leu-Dab-Abu-Thr-] [NAB 717] | 0 | 0 | 50 | 0 | 0 | 0 | 0 | 0 | 0 | 0 | 71 | 95 | 0 | 0 | 0 | –
